Results reported in patent publication US11680904B2, “Automated system for high-throughput all-optical dynamic electrophysiology” (The George Washington University, priority 2016, dated 2023).

Legend:
[1] = system: ChR2-CMs (neonatal rat ventricular CMs); format: cell-based
Protocol: (§1) Primary CMs were used through the study for all illustrative experiments with pharmacological treatments, mainly because at the current stage, they are perceived as more mature than the hiPSC-CMs and their response to drugs has been better documented. Briefly, neonatal (2-3 day old) SPRAGUE-DAWLEY® rats were sacrificed and ventricular tissue was removed per an approved Stony Brook University IACUC protocol. The tissue was digested overnight at 4° C. using 1 mg/mL trypsin (US BIOCHEMICALS®, Cleveland, Ohio) in Hanks' Balanced Salt Solution (HBSS, GIBCO® INVITROGEN™, Carlsbad, Calif.). The next morning, the tissue was serially digested using 1 mg/mL collagenase (WORTHINGTON BIOCHEMICAL®, Lakewood, N.J.) in HBSS at 37° C. and pipetted into conical tubes and placed on ice. After centrifugation, cells were re-suspended in culture medium M199 (GIBCO®) supplemented with […] L-glutamine (GIBCO®), 0.05 μg/mL penicillin-streptomycin (MEDIATECH CELLGRO™, Kansas City, Mo.), 0.2 μg/mL vitamin B12 (SIGMA ALDRICH®, St. Louis, Mo.), 10 mM HEPES (GIBCO®), 3.5 mg/mL D-(+)-glucose (SIGMA ALDRICH®), and 10% fetal bovine serum, FBS (GIBCO®). Fibroblasts were removed via a two-step pre-plating process, where the cell suspension was plated in a flask and incubated (37° C., 5% CO2) for 45-60 minutes and switched to a new flask and the incubation repeated. CMs were then counted using a hemocytometer prior to plating in glass-bottom 96-well plates (see Jia, Z. et al. Circulation. Arrhythmia and electrophysiology 4, 753-760, (2011) and Chung, C. Y., et al. J Cardiovasc Electrophysiol […], 1323-1329, (2007)).
Adenoviral delivery of ChR2(H134R) to primary CMs was performed in suspension (see Ambrosi, C. M. et al. Methods Mol Biol 1181, 215-228, (2014)). Briefly, the plasmid pcDNA3.1/hChR2(H134R)-EYFP was used (ADDGENE™, Cambridge, Mass.; deposited by Dr. K. Deisseroth) (see Zhang, F. et al. Nature 446, 633-639, (2007)), to develop an adenoviral construct (pBR322 backbone) with a ubiquitous CMV promoter. First-generation adenovirus was generated by homologous recombination of the Ad-CMV-ChR2-eYFP into pTG3604; further propagation and purification of the virus genomes was done by transfection into HEK293 cells and CsC1 banding. CMs were re-suspended in 2% FBS M199 after counting and diluted to 1.125×10^6 cells/mL and infected using an optimized MOI of 15 for two hours in an incubator (37° C., 5% CO2) with gentle agitation every 20 minutes. The MOI had been optimized during preliminary experiments to achieve >95% ChR2 expression in CMs within 48 hours using titer of 10^12 units/mL diluted in PBS, confirmed by eYFP reporter visualization and minimal cell death (by propidium iodide staining) (see Ambrosi, C. M., et al. Prog Biophys Mol Biol 115, 294-304, (2014) and Ambrosi, C. M. et al. Methods Mol Biol 1181, 215-228, (2014)). After two hours, the cell suspension was centrifuged and culture medium was removed and replaced with fresh 10% FBS M199 for plating (see Ambrosi, C. M. et al. Methods Mol Biol 1181, 215-228, (2014)).
Non-infected control CMs and ChR2-CM cells (for OptoHTS) were plated using a concentration of 1.125×10^6 cells/mL to achieve a plating density of 470,000 cells/cm^2. For CM/ChR2-HEK co-cultures, CMs at a concentration of 1.125×10^6 cells/mL were mixed in a conical with trypsinized ChR2-HEK cells, pre-diluted to achieve ratios 150:1 CM to ChR2-HEK. After centrifugation, the media was removed and the cells were re-suspended in fresh 10% FBS M199 to achieve the same density of plating as the control CMs.
All functional experiments were carried out 4-5 days after cell plating, at room temperature in Tyrode's solution containing the following (in mM): NaCl, 135; MgCl2, 1; KCl, 5.4; CaCl2, 1.5; NaH2PO4, 0.33; glucose, 5; and HEPES, 5 adjusted to pH 7.4 with NaOH (see Chung, C. Y., et al. J Cardiovasc Electrophysiol 18, 1323-1329, (2007)). […]

[2] = system: "spark"-ChR2-CMs; assay: sOptoHTS: all-optical electrophysiology of CMs sprinkled with "spark" ChR2-HEK cells; format: cell-based, rat
Protocol: as §1
The cell delivery approach employs “spark” cells (ChR2(H134R)-HEK293), a stable cell line showing near 100% expression of ChR2. “Spark” cells were developed by transfecting HEK293 cells (CRL-1573™ ATCC®, Manassas, Va.) with the ChR2 plasmid pcDNA3.1/hChR2(H134R)-EYFP using LIPOFECTAMINE® 2000 (INVITROGEN™, Carlsbad, Calif.). […]

[3] = system: hiPS-CMs; assay: Optical calcium recording in hiPS-CMs (OptoDyCE); format: cell-based, human; settings: 1 μM, 10 min
Protocol: Frozen human iPSC-derived CMs (ICELL® Cardiomyocytes^2 CMC-100-012-001, CELLULAR DYNAMICS INTERNATIONAL™, Madison, Wis.) were thawed per the manufacturer's instructions. The cells were plated at the recommended plating density of 156,000 cells/cm^2 on fibronectin-coated 96-well glass-bottom plates. In some experiments, cells were grown in three-dimensional microgrooved scaffolds. These fibronectin-coated PDMS (SYLGARD® 184, DOW CORNING®, Midland, Mich.) scaffolds with microtopographical features (see FIG. 16, panel “e,” peak-to-peak 120 μm, depth of 50 μm) were produced by molding onto metal templates fabricated by acoustic micromachining (see Entcheva, E. et al. Lab Chip 5, 179-183, (2005); Chung, C. Y. et al. FASEB journal: official publication of the Federation of American Societies for Experimental Biology 25, 851-862, (2011); and Chung, C. Y., et al. J Cardiovasc Electrophysiol 18, 1323-1329, (2007)); and small circular microgrooved scaffolds were punched-out and placed in the 96-well plates. […]
Optical recording of membrane voltage, Vm, was performed using the synthetic voltage-sensitive dye Di-4-ANBDQBS, spectrally-compatible with ChR2. […] Intracellular calcium, [Ca^2+]i, was recorded using QUEST RHOD-4™, AM diluted from a 0.5 mM stock solution dissolved in DMSO with 20% PLURONIC® to 10 μM in Tyrode's solution. […]

## C[S+](C)[O-] [DMSO]
[1]
  effect on APD / electrophysiological measurements: not seen to affect the electrophysiological (EP) measurements

## CN(CCOc1ccc(NS(C)(=O)=O)cc1)CCc1ccc(NS(C)(=O)=O)cc1 [dofetilide, Dofetilide]
[2]; 0.2 μM, paced at 1 Hz
  drug-induced AP variation, lower dose: sporadic EADs
[2]; 2 μM, paced 2 Hz
  drug-induced AP variation, higher dose: large temporal variability in AP morphology
[2]; optically paced samples, FIGS. 10A-10C
  early afterdepolarizations (EADs) versus dose: dose-dependent increase in EADs
[1]; 0.02 μM, paced at 1 Hz, 0.539 mW/mm^2 10 ms light pulses
  calcium instability / spatial heterogeneity: localized spontaneous calcium release (SCR)
[1]; 2 μM, 1 Hz pacing, versus control, p<0.05 for APD50
  spatial variability in APD (dispersion of repolarization): increases spatial variability in APD
[1]; 2 μM, 2 Hz optical pacing
  effect on APD: APD prolongation
  voltage instabilities: alternans
[1]; at higher frequency, opposite to reverse-use dependence
  relative APD50 change versus pacing frequency: enhanced relative APD50 prolongation

## CC(C)NCC(O)c1ccc(O)c(O)c1 (stereo not shown) [isoproterenol]
[3]; quiescent hiPS-CMs
  calcium-mediated pacing activity in quiescent cells: calcium-mediated pacing activity was induced
[3]; spontaneously beating hiPS-CMs
  rate of pacing in spontaneously beating cells: rate of pacing was accelerated

## COC(=O)C1=C(C)NC(C)=C(C(=O)OC)C1c1ccccc1[N+](=O)[O-] [nifedipine, Nifedipine]
[1]; optical pacing 1 Hz
  concentration of maximum APD shortening: around 1 μM
  concentration up to which CTD monotonically decreases: up to 10 μM
